The values below are quoted from earlier work in patent publication US20060211721A1, “Nutraceutical formulation of a cognitive enhancement system” (priority 2005, published 2006).

The conditions of this data set: background statement.

Regarding `C/C=C1\[C@H]2C=C(C)C[C@]1(N)c1ccc(=O)[nH]c1C2` [huperzine, Huperzine A], the oral bioavailability entry is “high oral bioavailability” and the “penetration through the blood brain barrier” value is “good penetration through the blood brain barrier”.
